Results from ChEMBL document CHEMBL1201862, “PubChem BioAssay data set” (2004).
Active and inactive are the calls of the source.

Columns and labels:
HeLa = assay: ATP-based viability loss in HeLa cells – cell-based, CellTiter-Glo luminescence, cherry-pick samples, cytotoxicity control for MITF activator project, dose response (AID 540259); assay type: functional; conditions: Homo sapiens
[1] = target: Glucose-6-phosphate 1-dehydrogenase (Homo sapiens, UniProt P11413); assay: inhibition of Homo sapiens G6PD, dose series – biochemical, fluorescence, selectivity assay for P. falciparum G6PD inhibitor project, dose response (AID 504792); assay type: functional
Sequence of Glucose-6-phosphate 1-dehydrogenase (P11413 whole entry): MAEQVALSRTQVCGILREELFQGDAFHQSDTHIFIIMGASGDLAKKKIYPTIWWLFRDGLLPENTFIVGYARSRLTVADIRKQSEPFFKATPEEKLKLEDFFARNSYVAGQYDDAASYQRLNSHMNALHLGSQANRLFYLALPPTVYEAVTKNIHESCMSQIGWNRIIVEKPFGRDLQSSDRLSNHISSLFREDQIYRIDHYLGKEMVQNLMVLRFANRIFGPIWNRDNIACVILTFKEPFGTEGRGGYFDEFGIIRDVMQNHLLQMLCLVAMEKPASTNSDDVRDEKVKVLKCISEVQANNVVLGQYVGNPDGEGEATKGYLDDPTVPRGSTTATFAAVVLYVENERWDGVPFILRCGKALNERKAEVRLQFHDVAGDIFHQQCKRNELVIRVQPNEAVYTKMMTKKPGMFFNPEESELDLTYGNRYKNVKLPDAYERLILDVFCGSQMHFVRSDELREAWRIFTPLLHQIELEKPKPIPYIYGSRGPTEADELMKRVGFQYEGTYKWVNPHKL

Protein RecA = target: T1, Protein RecA (Mycobacterium tuberculosis, UniProt P9WHJ3); assay: Fluorescence Cell-Free Homogeneous Dose Retest to Identify Inhibitors of RecA-Intein Splicing Activity. [Related pubchem assays (depositor defined):AID2097, AID2223, AID489010, AID492950]; assay type: functional
T1 sequence (P9WHJ3 whole entry): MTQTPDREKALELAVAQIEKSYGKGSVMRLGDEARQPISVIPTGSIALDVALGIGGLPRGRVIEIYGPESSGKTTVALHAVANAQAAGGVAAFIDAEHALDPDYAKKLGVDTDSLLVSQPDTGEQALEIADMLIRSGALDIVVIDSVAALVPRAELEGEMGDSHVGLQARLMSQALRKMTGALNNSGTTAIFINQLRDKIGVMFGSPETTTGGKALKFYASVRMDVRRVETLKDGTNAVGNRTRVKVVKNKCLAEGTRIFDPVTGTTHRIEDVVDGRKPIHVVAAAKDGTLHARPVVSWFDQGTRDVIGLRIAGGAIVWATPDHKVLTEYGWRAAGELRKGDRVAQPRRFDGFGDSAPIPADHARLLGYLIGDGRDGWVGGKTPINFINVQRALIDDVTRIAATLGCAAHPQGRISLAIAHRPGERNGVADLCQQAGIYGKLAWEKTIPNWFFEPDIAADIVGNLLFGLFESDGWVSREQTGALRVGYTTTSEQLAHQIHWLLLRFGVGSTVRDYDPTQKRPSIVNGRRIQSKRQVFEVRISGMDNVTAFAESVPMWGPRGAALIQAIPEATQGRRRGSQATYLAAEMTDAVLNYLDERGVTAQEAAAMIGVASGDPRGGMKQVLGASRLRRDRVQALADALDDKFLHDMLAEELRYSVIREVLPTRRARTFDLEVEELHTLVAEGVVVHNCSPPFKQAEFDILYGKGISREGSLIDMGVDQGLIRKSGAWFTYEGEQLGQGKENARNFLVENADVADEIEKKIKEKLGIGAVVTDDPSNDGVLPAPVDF

[2] = target: T2, Replicative DNA helicase DnaB (Mycobacterium tuberculosis, UniProt P9WMR3); assay: DnaB intein splicing inhibitors, dose response, biochemical, cell-free fluorescence (AID 449749); assay type: functional
T2 sequence (P9WMR3 whole entry): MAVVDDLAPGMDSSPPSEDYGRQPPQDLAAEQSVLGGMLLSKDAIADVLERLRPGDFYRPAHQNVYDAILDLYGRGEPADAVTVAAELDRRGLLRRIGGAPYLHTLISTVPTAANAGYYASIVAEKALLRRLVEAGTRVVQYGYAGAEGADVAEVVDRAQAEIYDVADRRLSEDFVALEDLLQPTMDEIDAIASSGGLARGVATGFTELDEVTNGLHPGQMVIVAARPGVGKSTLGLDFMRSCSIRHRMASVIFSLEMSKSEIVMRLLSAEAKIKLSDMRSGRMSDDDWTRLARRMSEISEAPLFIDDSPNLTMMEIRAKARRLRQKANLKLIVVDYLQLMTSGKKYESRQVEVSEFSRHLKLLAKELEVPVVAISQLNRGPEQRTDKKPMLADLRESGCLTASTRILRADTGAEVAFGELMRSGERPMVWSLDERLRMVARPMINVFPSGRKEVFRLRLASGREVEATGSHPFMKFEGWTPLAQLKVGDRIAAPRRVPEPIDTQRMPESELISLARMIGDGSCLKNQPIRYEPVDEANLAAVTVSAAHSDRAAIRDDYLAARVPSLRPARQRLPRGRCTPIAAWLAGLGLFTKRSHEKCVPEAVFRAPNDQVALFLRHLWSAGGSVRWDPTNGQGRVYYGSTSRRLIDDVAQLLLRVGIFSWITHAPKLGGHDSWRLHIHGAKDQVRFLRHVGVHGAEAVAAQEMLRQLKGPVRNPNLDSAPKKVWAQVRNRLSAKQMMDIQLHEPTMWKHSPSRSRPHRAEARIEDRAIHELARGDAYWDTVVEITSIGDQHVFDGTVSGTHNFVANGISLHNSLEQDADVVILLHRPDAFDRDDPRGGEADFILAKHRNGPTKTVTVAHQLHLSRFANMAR

[3] = target: T3, Apoptotic protease-activating factor 1 (Homo sapiens, UniProt O14727); assay type: functional
T3 sequence (O14727 whole entry): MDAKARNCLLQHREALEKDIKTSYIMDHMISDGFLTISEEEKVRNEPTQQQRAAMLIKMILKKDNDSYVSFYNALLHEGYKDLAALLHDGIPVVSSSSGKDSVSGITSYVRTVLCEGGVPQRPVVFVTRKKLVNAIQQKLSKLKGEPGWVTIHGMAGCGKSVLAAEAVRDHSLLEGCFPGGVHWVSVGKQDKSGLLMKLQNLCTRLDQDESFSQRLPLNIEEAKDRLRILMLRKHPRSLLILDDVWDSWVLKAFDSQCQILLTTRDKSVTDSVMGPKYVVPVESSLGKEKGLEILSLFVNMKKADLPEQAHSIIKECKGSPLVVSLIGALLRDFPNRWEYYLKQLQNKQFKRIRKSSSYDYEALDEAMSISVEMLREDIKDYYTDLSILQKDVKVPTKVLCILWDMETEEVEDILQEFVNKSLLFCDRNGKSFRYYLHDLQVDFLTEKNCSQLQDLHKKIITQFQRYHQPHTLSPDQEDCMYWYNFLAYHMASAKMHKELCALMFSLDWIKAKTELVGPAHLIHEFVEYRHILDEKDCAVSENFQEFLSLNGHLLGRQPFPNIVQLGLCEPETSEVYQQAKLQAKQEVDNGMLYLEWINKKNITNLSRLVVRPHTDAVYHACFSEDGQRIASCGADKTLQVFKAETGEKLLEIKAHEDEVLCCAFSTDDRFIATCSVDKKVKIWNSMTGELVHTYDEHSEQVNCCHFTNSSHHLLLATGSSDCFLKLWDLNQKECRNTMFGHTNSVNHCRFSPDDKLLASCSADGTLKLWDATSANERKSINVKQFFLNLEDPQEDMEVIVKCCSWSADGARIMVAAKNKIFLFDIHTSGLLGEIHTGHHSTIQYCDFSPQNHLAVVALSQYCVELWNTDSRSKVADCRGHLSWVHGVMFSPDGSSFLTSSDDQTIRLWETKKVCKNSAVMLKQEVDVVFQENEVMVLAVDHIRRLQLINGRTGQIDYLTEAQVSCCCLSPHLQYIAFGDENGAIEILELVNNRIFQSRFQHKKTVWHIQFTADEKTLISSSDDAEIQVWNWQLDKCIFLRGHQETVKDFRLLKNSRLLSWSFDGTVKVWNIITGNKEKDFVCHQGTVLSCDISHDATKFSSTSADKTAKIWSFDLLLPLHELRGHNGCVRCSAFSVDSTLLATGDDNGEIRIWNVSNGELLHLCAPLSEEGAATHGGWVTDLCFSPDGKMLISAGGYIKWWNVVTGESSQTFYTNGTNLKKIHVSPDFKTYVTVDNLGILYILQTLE

Escherichia coli = assay: microbe, parasite or virus in culture
HEK293 = assay: cells; conditions: Homo sapiens;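 also: cells exposed to compound for 14 hours overnight before viability readout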
[4] = target: T4, Nucleotide-binding oligomerization domain-containing protein 1 (Homo sapiens, UniProt Q9Y239); assay: blockers of NOD1 pathway activity – revised, SAR follow-up (AID 2333); assay type: functional
T4 sequence (Q9Y239 whole entry): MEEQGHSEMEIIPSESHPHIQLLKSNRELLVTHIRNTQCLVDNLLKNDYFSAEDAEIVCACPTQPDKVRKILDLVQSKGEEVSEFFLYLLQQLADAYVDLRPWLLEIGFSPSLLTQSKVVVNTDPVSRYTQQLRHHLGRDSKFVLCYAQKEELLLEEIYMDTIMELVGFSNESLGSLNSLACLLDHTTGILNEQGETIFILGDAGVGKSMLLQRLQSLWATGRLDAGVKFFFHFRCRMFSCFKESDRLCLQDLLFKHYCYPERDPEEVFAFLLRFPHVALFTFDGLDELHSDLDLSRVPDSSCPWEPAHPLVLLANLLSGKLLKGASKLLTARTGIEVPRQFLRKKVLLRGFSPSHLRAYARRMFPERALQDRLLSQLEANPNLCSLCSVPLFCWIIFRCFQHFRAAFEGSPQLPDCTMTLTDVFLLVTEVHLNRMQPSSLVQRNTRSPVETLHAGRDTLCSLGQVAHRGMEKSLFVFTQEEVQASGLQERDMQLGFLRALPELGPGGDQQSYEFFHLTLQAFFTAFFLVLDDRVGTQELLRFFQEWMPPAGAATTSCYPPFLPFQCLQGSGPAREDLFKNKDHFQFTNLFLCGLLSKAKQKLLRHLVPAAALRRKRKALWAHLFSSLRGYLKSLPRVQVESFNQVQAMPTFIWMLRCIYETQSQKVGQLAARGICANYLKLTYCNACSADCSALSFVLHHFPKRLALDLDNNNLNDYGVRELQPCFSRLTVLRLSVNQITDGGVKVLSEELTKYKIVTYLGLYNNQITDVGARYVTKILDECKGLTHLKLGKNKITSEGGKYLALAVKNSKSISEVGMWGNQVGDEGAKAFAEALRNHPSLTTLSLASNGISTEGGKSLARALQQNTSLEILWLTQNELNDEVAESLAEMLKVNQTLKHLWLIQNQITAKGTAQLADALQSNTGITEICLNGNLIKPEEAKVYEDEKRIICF

Tumor necrosis factor = Tumor necrosis factor (Homo sapiens, UniProt P01375); assay: analog potency on TNFa NF-kB signaling – cell-based, revised, SAR follow-up (AID 2337); assay type: functional
Sequence of Tumor necrosis factor (P01375 whole entry): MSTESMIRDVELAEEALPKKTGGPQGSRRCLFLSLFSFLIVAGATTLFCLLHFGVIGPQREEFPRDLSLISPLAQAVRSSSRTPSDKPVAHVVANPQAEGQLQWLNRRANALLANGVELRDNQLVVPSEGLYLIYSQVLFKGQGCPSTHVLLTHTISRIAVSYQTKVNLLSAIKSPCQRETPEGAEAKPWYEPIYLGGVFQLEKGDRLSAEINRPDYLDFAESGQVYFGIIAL

Phospholipase D2 = Phospholipase D2 (Homo sapiens, UniProt O14939); assay: cellular phospholipase D2 inhibition IC50 – cell-based, dose response (AID 602147); assay type: functional;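 also: cellular assay in HEK293 cells overexpressing GFP-tagged PLD2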
Sequence of Phospholipase D2 (O14939 whole entry): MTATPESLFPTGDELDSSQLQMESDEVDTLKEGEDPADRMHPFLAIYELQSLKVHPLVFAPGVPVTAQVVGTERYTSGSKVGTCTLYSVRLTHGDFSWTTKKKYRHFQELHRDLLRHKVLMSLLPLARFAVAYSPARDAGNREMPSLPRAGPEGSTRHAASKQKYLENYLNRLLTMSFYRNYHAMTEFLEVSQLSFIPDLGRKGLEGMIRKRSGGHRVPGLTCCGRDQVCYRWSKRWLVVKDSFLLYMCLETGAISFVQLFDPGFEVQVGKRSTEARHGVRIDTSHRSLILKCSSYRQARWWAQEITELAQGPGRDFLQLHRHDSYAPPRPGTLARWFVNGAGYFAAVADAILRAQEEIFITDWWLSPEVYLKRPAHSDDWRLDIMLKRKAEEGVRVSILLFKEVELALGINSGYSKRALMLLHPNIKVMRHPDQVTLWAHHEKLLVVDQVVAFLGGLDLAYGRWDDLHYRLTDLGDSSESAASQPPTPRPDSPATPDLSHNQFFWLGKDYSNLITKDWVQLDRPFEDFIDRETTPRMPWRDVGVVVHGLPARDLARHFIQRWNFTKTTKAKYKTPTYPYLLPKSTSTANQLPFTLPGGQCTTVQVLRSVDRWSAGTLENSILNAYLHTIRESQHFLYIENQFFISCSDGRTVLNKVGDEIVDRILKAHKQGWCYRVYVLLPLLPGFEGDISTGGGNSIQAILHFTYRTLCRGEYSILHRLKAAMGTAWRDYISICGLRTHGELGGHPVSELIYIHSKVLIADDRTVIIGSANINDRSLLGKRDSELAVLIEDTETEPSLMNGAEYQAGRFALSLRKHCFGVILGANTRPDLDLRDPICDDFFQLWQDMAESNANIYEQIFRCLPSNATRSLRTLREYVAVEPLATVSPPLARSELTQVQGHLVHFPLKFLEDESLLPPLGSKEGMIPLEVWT

Phospholipase D1 = target: T5, Phospholipase D1 (Homo sapiens, UniProt Q13393); assay: cellular phospholipase D1 inhibition IC50 – cell-based, dose response (AID 602151); assay type: functional;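 also: cellular PLD1 assay in Calu-1 cells stimulated with PMA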
T5 sequence (Q13393 whole entry): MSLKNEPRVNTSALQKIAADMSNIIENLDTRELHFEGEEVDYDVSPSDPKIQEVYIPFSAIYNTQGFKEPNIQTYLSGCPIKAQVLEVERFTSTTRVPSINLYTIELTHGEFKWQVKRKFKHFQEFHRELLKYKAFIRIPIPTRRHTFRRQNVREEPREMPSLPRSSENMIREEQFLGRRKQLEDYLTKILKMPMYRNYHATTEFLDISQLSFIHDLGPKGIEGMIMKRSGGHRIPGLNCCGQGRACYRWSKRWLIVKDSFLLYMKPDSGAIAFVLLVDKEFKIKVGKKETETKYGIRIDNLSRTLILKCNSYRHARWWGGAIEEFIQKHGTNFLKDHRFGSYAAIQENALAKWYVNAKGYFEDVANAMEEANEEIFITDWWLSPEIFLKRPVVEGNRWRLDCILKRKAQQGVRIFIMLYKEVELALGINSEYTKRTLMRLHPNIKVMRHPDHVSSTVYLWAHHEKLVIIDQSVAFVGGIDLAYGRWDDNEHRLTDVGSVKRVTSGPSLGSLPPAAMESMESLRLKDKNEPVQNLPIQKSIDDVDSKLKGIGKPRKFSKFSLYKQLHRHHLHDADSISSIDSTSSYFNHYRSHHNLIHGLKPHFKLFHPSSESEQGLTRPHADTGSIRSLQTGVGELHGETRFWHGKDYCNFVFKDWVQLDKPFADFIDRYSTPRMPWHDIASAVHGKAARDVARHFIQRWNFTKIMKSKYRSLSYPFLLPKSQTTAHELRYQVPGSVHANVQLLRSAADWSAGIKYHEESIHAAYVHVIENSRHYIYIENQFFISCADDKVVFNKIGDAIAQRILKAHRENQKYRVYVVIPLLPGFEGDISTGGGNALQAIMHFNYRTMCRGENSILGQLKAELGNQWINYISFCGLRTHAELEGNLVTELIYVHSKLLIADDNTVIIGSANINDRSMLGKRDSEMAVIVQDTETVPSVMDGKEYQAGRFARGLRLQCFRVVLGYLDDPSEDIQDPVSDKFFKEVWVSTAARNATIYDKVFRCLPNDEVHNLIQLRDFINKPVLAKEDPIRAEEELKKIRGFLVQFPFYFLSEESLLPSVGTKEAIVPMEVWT

| SMILES | AC50 (HeLa) | IC50 (Phospholipase D2) | IC50 (Phospholipase D1) | also measured |
| --- | --- | --- | --- | --- |
| COc1cccc(C(=O)Nc2ccc(NC(=O)C3CC3)cn2)c1 | 122 µM (active) |  |  |  |
| CCc1ccc(-c2cn3nc(-c4ccccc4)cnc3n2)cc1 | 241 µM (active) |  |  |  |
| Nc1ccc(N(CCO)CCO)cc1 |  |  |  | IC50 [1]: > 80 µM (inactive); EC50 (Protein RecA): > 380 µM (inconclusive); AC50 [2]: 256 µM (active); IC50 [3]: 88.3 µM (active) |
| Cc1ccc(C(=O)N(CCN2CCCCC2)CC2CCCN(C3CCCC3)C2)s1 (configuration not stated) | 72.6 µM (active) |  |  |  |
| C[C@H](NC(=O)c1[nH]cnc1C(=O)NCCCCCNC(=O)OC(C)(C)C)c1ccccc1 |  |  |  | AC50 (Escherichia coli): 63.8 µM (active) |
| CC(=O)N1c2ccc(S(=O)(=O)N3CCN(c4ccc(Cl)cc4)CC3)cc2CC1C (configuration not stated) |  |  |  | IC50 (HEK293): > 20 µM (inactive); IC50 [4]: 2.57 µM (active); IC50 (Tumor necrosis factor): 5.76 µM (active) |
| C[C@@H](CN1CC=C(n2c(=O)[nH]c3ccccc32)CC1)NC(=O)c1ccc2ccccc2c1 |  | 2.25 µM (active) | 0.05 µM (active) |  |
| C[C@@H](CN1CCC(n2c(=O)[nH]c3cc(I)ccc32)CC1)NC(=O)c1ccc2ccccc2c1 |  | 6.37 µM (active) | 0.028 µM (active) |  |
| C[C@@H](CN1CCC(n2c(=O)[nH]c3ccccc32)CC1)NC(=O)c1cc2ccccc2s1 |  | 0.22 µM (active) | 0.002 µM (active) |  |
